According to patent US6562817B1, “Tricyclic compound” (Shionogi & Co., Ltd., priority 1998, dated 2003):

Experiments:
[1] = test system: anti-OVA IgE production in BALB/c mice; experiment: Suppressive effect on the IgE production against ovalbumin (OVA): anti-OVA IgE antibody titer (PCA titer); format: in vivo, mouse; details: BALB/c mice immunized with OVA, 40 mg/kg orally for 10 days; titer = highest 2^n serum dilution positive in rat PCA
Description: Suppressive effect on the IgE Production Against ovalbumin (OVA)
BALB/c mice (female, 8-10 weeks old) and Wistar rats (female, 8-10 weeks old) which were bought from Japan SLC, Inc. (Shizuoka) were used.
BALB/c mice were immunized by an intraperitoneal administration of 0.2 ml suspension of 2 μg of ovalbumin (OVA) and 2 mg of aluminium hydroxide gel in physiological saline. After 10 days, blood was collected from hearts, then sera were separated and stocked at −40° C. till the measurement of IgE antibody titer.
After the compound of the present invention was dissolved or suspended in N,N-dimethylacetoamide, the mixture was diluted 20 times with miglyol 812 neutral oil. The obtained solution was orally administered to mice at 0.1 ml per mouse (dose 40 mg/kg). The administration was continued for 10 days from the immunizing day to the day before the blood collection.
The obtained mouse serum was 2-fold diluted with physiological saline, then each 50 μl of the solution was intradermally injected at dorsal skin of Wistar rats which previously hair cut. After 24 hours, a passive cutaneous anaphylaxis reaction (PCA) was induced by an intravenous injection of 0.5 ml of physiological saline containing 1 mg of OVA and 5 mg of Evans' blue dye. The rats were sacrified 30 minutes later and the highest dilution giving bluing with a diameter of 5 mm or more was recorded as the PCA titer. […]

Which “PCA Titer” value [1] does the source give for `CC(C)=CCNc1ccc(-c2cc(C)c(-c3ccc(OCC=C(C)C)nc3)cc2C)c(F)c1` [Ib-250] here?
The value was 0.

What about the melting point of the same compound?
The melting point was 87 to 88 °C.
